Several values for one entry are separate records, joined by “and”; a condition that tells them apart may be missing. Equal values may be shown once. Toxic doses and inconclusive results are not listed.

For 22 compounds, T/C results are on record in PubChem BioAssay AID330 (DTP/NCI, 2004).

The test system of the assay is P388 leukemia ip, CD2F1 mice, survival T/C. Nature of the assay: NCI In Vivo Anticancer Drug Screen. Data for tumor model P388 Leukemia (intraperitoneal) in CD2F1 (CDF1) mice. The note with it: endpoint: median survival time, higher = longer survival. The method in brief:
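Mice carrying the transplanted tumor received test compound or vehicle. Survival was recorded in each group, and the value is the treated-group measurement divided by that of the vehicle-treated control group.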

Setting [1] is: dose: 50.0 mg/kg/injection, schedule: Q01DX005 (ip), vehicle: saline with Tween-80.
[2] abbreviates: dose: 100.0 mg/kg/injection, schedule: Q01DX005 (ip), vehicle: saline with Tween-80.
[3] abbreviates: dose: 200.0 mg/kg/injection, schedule: Q01DX005 (ip), vehicle: saline with Tween-80.
Setting [4] is: dose: 50.0 mg/kg/injection, schedule: Q01DX009 (ip), vehicle: saline with Tween-80.
The mark [5] stands for this setting: dose: 200.0 mg/kg/injection, schedule: Q01DX009 (ip), vehicle: saline with Tween-80.
Where [6] appears, read: dose: 6.25 mg/kg/injection, schedule: Q01DX009 (ip), vehicle: Klucel (hydroxypropylcellulose) (HPC).
Where [7] appears, read: dose: 12.5 mg/kg/injection, schedule: Q01DX009 (ip), vehicle: Klucel (hydroxypropylcellulose) (HPC).
The mark [8] stands for this setting: dose: 25.0 mg/kg/injection, schedule: Q01DX009 (ip), vehicle: saline with Tween-80.
The mark [9] stands for this setting: dose: 100.0 mg/kg/injection, schedule: Q01DX009 (ip), vehicle: saline with Tween-80.

Consider `Cc1ccc(S(=O)(=O)N=Nc2c(O)c3ccccc3c3ccccc23)cc1`, for which the T/C reads like this: under setting [1], 103 % of control; under setting [2], 103 % of control; under setting [3], 100 % of control.

With `CC(=O)OC1CC(C)(C2OC(=O)CC2CO)C2=CC(=O)OC3CC4C(C)(O)C=CC(=O)C4(C)C1C23C` (stereo not given), the T/C reads like this: (dose: 12.5 mg/kg/injection, schedule: Q01DX001 (ip), vehicle: Klucel (hydroxypropylcellulose) (HPC)) 100 % of control; (dose: 25.0 mg/kg/injection, schedule: Q01DX001 (ip), vehicle: Klucel (hydroxypropylcellulose) (HPC)) 100 % of control; (dose: 50.0 mg/kg/injection, schedule: Q01DX001 (ip), vehicle: Klucel (hydroxypropylcellulose) (HPC)) 102 % of control; (dose: 100.0 mg/kg/injection, schedule: Q01DX001 (ip), vehicle: Klucel (hydroxypropylcellulose) (HPC)) 105 % of control.

In the case of `O=C(O)CC(=O)C(C(=O)O)C(CCc1ccccc1)C(C(=O)O)C(=O)CC(=O)O` (stereo not given), the T/C was 92 % of control (dose: 3.12 mg/kg/injection, schedule: Q01DX009 (ip), vehicle: saline with Tween-80); 101 % of control (dose: 6.25 mg/kg/injection, schedule: Q01DX009 (ip), vehicle: saline with Tween-80); 100 % of control (dose: 12.5 mg/kg/injection, schedule: Q01DX009 (ip), vehicle: saline with Tween-80); 89 % of control and 92 % of control under setting [4]; 90 % of control under setting [5].

As to `CCN=C(Nc1cccc(C2=NCCN2)c1)c1ccc(C(=NCC)Nc2cccc(C3=NCCN3)c2)cc1`, the T/C is, setting by setting: (dose: 1.56 mg/kg/injection, schedule: Q01DX005 (ip), vehicle: Klucel (hydroxypropylcellulose) (HPC)) 100 % of control; (dose: 3.12 mg/kg/injection, schedule: Q01DX005 (ip), vehicle: Klucel (hydroxypropylcellulose) (HPC)) 99 % of control; (dose: 6.25 mg/kg/injection, schedule: Q01DX005 (ip), vehicle: Klucel (hydroxypropylcellulose) (HPC)) 109 % of control; (dose: 12.5 mg/kg/injection, schedule: Q01DX005 (ip), vehicle: Klucel (hydroxypropylcellulose) (HPC)) 109 % of control.

For the compound `CCOP(=O)(NN)OCC`, the T/C runs as follows: (dose: 25.0 mg/kg/injection, schedule: Q04DX003 (ip), vehicle: saline) 114 % of control; (dose: 50.0 mg/kg/injection, schedule: Q04DX003 (ip), vehicle: saline) 97 % of control; (dose: 100.0 mg/kg/injection, schedule: Q04DX003 (ip), vehicle: saline) 106 % of control; (dose: 200.0 mg/kg/injection, schedule: Q04DX003 (ip), vehicle: saline) 103 % of control.

Turning to `CCC(CC)C[Se][Se]CC(CC)CC`, the T/C is, setting by setting: under setting [6], 100 % of control; under setting [7], 101 % of control; (dose: 25.0 mg/kg/injection, schedule: Q01DX009 (ip), vehicle: Klucel (hydroxypropylcellulose) (HPC)) 103 % of control.

In the case of `C[CH2][Sn]([CH2]C)([O][P+](=O)C[Si](C)(C)c1ccccc1)[O][P+](=O)C[Si](C)(C)c1ccccc1` (stereo not given), the T/C is, setting by setting: (dose: 30.0 mg/kg/injection, schedule: Q01DX005 (ip), vehicle: saline with Tween-80) 119 % of control; (dose: 60.0 mg/kg/injection, schedule: Q01DX005 (ip), vehicle: saline with Tween-80) 153 % of control.

Turning to `OC1C(c2ccccc2)=C(c2ccccc2)C2(c3ccccc3)CC12c1ccccc1` (stereo not given), the T/C is, setting by setting: (dose: 12.5 mg/kg/injection, schedule: Q04DX003 (ip), vehicle: saline with Tween-80) 93 % of control; (dose: 25.0 mg/kg/injection, schedule: Q04DX003 (ip), vehicle: saline with Tween-80) 117 % of control; (dose: 50.0 mg/kg/injection, schedule: Q04DX003 (ip), vehicle: saline with Tween-80) 88 % of control.

For `CC[C@@]1(O)C(=O)OCc2c1cc1n(c2=O)Cc2cc3c(N)cccc3nc2-1`, the T/C reads like this: (dose: 0.12 mg/kg/injection, schedule: Q01DX005 (ip), vehicle: saline with Tween-80) 153 % of control; (dose: 0.25 mg/kg/injection, schedule: Q01DX005 (ip), vehicle: saline with Tween-80) 153 % of control; (dose: 0.5 mg/kg/injection, schedule: Q01DX005 (ip), vehicle: saline with Tween-80) 180 % of control and 204 % of control; (dose: 1.0 mg/kg/injection, schedule: Q01DX005 (ip), vehicle: saline with Tween-80) 180 % of control.

Turning to `COc1ccc(/C(C#N)=C/c2ccccc2)cc1`, the T/C is, setting by setting: (dose: 6.25 mg/kg/injection, schedule: Q01DX009 (ip), vehicle: suspension in saline) 99 % of control and 103 % of control and 107 % of control; (dose: 12.5 mg/kg/injection, schedule: Q01DX009 (ip), vehicle: suspension in saline) 100 % of control and 108 % of control and 114 % of control; under setting [8], 86 % of control; (dose: 25.0 mg/kg/injection, schedule: Q01DX009 (ip), vehicle: suspension in saline) 100 % of control and 92 % of control and 98 % of control; under setting [4], 91 % of control; (dose: 50.0 mg/kg/injection, schedule: Q01DX009 (ip), vehicle: suspension in saline) 107 % of control and 124 % of control. For the same compound, the T/C was 91 % of control under setting [9] and 101 % of control under setting [5].

`COc1ccc(/C=C(/C(=O)O)c2ccc(OC)cc2)cc1`: the T/C reads like this: (dose: 100.0 mg/kg/injection, schedule: Q04DX003 (ip), vehicle: other) 100 % of control; (dose: 200.0 mg/kg/injection, schedule: Q04DX003 (ip), vehicle: other) 95 % of control; (dose: 400.0 mg/kg/injection, schedule: Q04DX003 (ip), vehicle: other) 100 % of control.

Turning to `O=C(O)c1ccc(O)c(C(=O)O)c1`, the T/C by setting is: under setting [4], 94 % of control; under setting [9], 94 % of control.

As for `C[N+](C)(C)CC[N+](C)(C)Cc1cccc2ccccc12`, the T/C runs as follows: (dose: 50.0 mg/kg/injection, schedule: Q01DX009 (ip), vehicle: saline) 106 % of control; (dose: 100.0 mg/kg/injection, schedule: Q01DX009 (ip), vehicle: saline) 107 % of control.

Turning to `O=C(O)C1CCC(=O)N1Cc1ccccc1` (stereo not given), the T/C was 89 % of control (dose: 50.0 mg/kg/injection, schedule: Q01DX009 (ip), vehicle: Klucel (hydroxypropylcellulose) (HPC)); 100 % of control (dose: 100.0 mg/kg/injection, schedule: Q01DX009 (ip), vehicle: Klucel (hydroxypropylcellulose) (HPC)); 107 % of control (dose: 200.0 mg/kg/injection, schedule: Q01DX009 (ip), vehicle: Klucel (hydroxypropylcellulose) (HPC)).

Consider `CN(C)C(=O)C1SCCCS1`, for which the T/C was 107 % of control (dose: 100.0 mg/kg/injection, schedule: Q04DX002 (ip), vehicle: saline with Tween-80); 108 % of control (dose: 200.0 mg/kg/injection, schedule: Q04DX002 (ip), vehicle: saline with Tween-80); 108 % of control (dose: 400.0 mg/kg/injection, schedule: Q04DX002 (ip), vehicle: saline with Tween-80).

As to `CC(/C=C/C1(C)C(C)CCC(=O)C1C)=C\Cc1c(O)c(Cl)c(C)c(C=O)c1O` (stereo not given), the T/C runs as follows: (dose: 3.12 mg/kg/injection, schedule: Q01DX009 (ip), vehicle: Klucel (hydroxypropylcellulose) (HPC)) 101 % of control and 103 % of control; under setting [6], 103 % of control and 106 % of control; under setting [7], 106 % of control and 113 % of control.

Take `C=C1CC[C@@H]2C(C)(C)CCC[C@@]2(C)[C@@H]1Cc1cc(O)ccc1O`: the T/C (dose: 10.0 mg/kg/injection, schedule: Q01DX009 (ip), vehicle: Klucel (hydroxypropylcellulose) (HPC)) was 104 % of control; the T/C (dose: 20.0 mg/kg/injection, schedule: Q01DX009 (ip), vehicle: Klucel (hydroxypropylcellulose) (HPC)) is 110 % of control; the T/C (dose: 40.0 mg/kg/injection, schedule: Q01DX009 (ip), vehicle: Klucel (hydroxypropylcellulose) (HPC)) is 116 % of control.

As for `N#CC1(N2CCCCC2)CCCCC1`, the T/C reads like this: (dose: 3.13 mg/kg/injection, schedule: Q01DX009 (ip), vehicle: Klucel (hydroxypropylcellulose) (HPC)) 106 % of control; under setting [6], 103 % of control; under setting [7], 93 % of control.

`N#CCSCC(=O)c1ccccc1`: the T/C reads like this: under setting [1], 105 % of control; under setting [2], 105 % of control; under setting [3], 112 % of control.

On to `Nc1ncnc2ccc(Cl)cc12`, for which the T/C was 105 % of control under setting [4], 100 % of control under setting [9] and 107 % of control under setting [5].

In the case of `C/C=C(\C)C(=O)N/N=C\c1ccc(O)cc1O`, the T/C is 104 % of control under setting [4], 96 % of control under setting [9] and 91 % of control under setting [5].

`CC(=O)Oc1ccc(CC(=O)O)cc1`: the T/C runs as follows: under setting [8], 107 % of control; under setting [4], 103 % of control; under setting [9], 103 % of control; under setting [5], 107 % of control.
